Patent publication US20230085307A1, “PYRIDAZINONE COMPOUND AND HERBICIDE” (NISSAN CHEMICAL CORPORATION, priority 2019, published 2023)

Tests used:
persian speedwell [1] = experiment: Test Example 4: herbicidal effect by soil treatment (Table 19, symbol R); format: in vivo, Persian speedwell (Veronica persica); settings: amount of applied herbicide 320 g/ha
Summary of the method: (§1)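 Soil-surface application: an emulsion agent diluted with water to the predetermined dose is sprayed uniformly over seeds lying under roughly 1.5 cm of sterilized diluvial soil. Boxes stay in a greenhouse at 25° C. to 30° C. Three weeks later, each species is graded on previously defined criteria.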

windgrass [2] = experiment: Test Example 5: herbicidal effect by foliage application, plastic box (Table 20, symbol L); format: in vivo, windgrass (Apera spica-venti); settings: foliage application, 320 g/ha; for herbicidal effect on windgrass (L): three weeks after application; for L (windgrass) herbicidal effect grade: evaluated 3 weeks after application
Summary of the method: (§2)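 Sow seeds spot-wise in sterilized diluvial soil; cover with ~1.5 cm soil. Grow 14 days in greenhouse, 25° C. to 30° C. Spray foliage with emulsion diluted to predetermined amount. Rate effect after 3 weeks.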

lambsquarters [3] = experiment: Test Example 5: herbicidal effect by foliage application, plastic box (Table 20, symbol O); format: in vivo, lambsquarters (Chenopodium album); settings: foliage application, 320 g/ha; for herbicidal effect on lambsquarters (O): three weeks after application; for O (lambsquarters) herbicidal effect grade: evaluated 3 weeks after application
Summary of the method: as §2

barnyard grass [4] = experiment: Test Example 3: herbicidal effect by foliage application, Wagner pot (Table 18, symbol H); format: in vivo, barnyard grass (Echinochloa crus-galli); settings: amount of applied herbicide 320 g/ha
Summary of the method: (§3)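 Plants were sown in alluvial soil held under 0.1–0.5 cm standing water and grown 14 days in a greenhouse at 25–30 °C. An emulsifiable formulation, water-diluted to the set dose, was then sprayed onto the foliage, and effects were scored three weeks later using previously defined criteria.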

Italian ryegrass [5] = experiment: Test Example 4: herbicidal effect by soil treatment (Table 19, symbol K); format: in vivo, Italian ryegrass (Lolium multiflorum); settings: amount of applied herbicide 320 g/ha
Summary of the method: as §1

oval-leafed pondweed = experiment: Test Example 1: herbicidal activity, application before weed generation under submerged conditions (Table 16, symbol C); format: in vivo, oval-leafed pondweed (Monochoria vaginalis); settings: amount of applied herbicide 320 g/ha
Summary of the method: (§4)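 Emulsion formulation, water-diluted to set dose, was put onto the flooded surface (4 cm depth, alluvial soil) the same day weeds were sown and 2.5-leaf rice transplanted. After 3 weeks at 25-30 °C under glass, each species was rated 0 (≤5% kill) to 5 (≥90% kill).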

velvetleaf = experiment: Test Example 5: herbicidal effect by foliage application, plastic box (Table 20, symbol M); format: in vivo, velvetleaf (Abutilon theophrasti); settings: foliage application, 320 g/ha; for herbicidal effect on velvetleaf (M): three weeks after application; for M (velvetleaf) herbicidal effect grade: evaluated 3 weeks after application
Summary of the method: as §2

Italian ryegrass [6] = experiment: Test Example 5: herbicidal effect by foliage application, plastic box (Table 20, symbol K); format: in vivo, Italian ryegrass (Lolium multiflorum); settings: foliage application, 320 g/ha; for herbicidal effect on Italian ryegrass (K): three weeks after application; for K (Italian ryegrass) herbicidal effect grade: evaluated 3 weeks after application
Summary of the method: as §2

persian speedwell [7] = experiment: Test Example 5: herbicidal effect by foliage application, plastic box (Table 20, symbol R); format: in vivo, Persian speedwell (Veronica persica); settings: foliage application, 320 g/ha; for herbicidal effect on persian speedwell (R): three weeks after application; for R (persian speedwell) herbicidal effect grade: evaluated 3 weeks after application
Summary of the method: as §2

lambsquarters [8] = experiment: Test Example 4: herbicidal effect by soil treatment (Table 19, symbol O); format: in vivo, lambsquarters (Chenopodium album); settings: amount of applied herbicide 320 g/ha
Summary of the method: as §1

windgrass [9] = experiment: Test Example 4: herbicidal effect by soil treatment (Table 19, symbol L); format: in vivo, windgrass (Apera spica-venti); settings: amount of applied herbicide 320 g/ha
Summary of the method: as §1

barnyard grass [10] = experiment: Test Example 4: herbicidal effect by soil treatment (Table 19, symbol H); format: in vivo, barnyard grass (Echinochloa crus-galli); settings: amount of applied herbicide 320 g/ha
Summary of the method: as §1

southern crabgrass = experiment: Test Example 5: herbicidal effect by foliage application, plastic box (Table 20, symbol F); format: in vivo, southern crabgrass (Digitaria ciliaris); settings: foliage application, 320 g/ha; for herbicidal effect on southern crabgrass (F): three weeks after application; for F (southern crabgrass) herbicidal effect grade: evaluated 3 weeks after application
Summary of the method: as §2

Chinese sprangletop = experiment: Test Example 3: herbicidal effect by foliage application, Wagner pot (Table 18, symbol D); format: in vivo, chinese sprangletop (Leptochloa chinensis); settings: amount of applied herbicide 320 g/ha
Summary of the method: as §3

false cleavers = experiment: Test Example 4: herbicidal effect by soil treatment (Table 19, symbol Q); format: in vivo, false cleavers (Galium spurium); settings: amount of applied herbicide 320 g/ha
Summary of the method: as §1

green foxtail = experiment: Test Example 5: herbicidal effect by foliage application, plastic box (Table 20, symbol G); format: in vivo, green foxtail (Setaria viridis); settings: foliage application, 320 g/ha; for herbicidal effect on green foxtail (G): three weeks after application; for G (green foxtail) herbicidal effect grade: evaluated 3 weeks after application
Summary of the method: as §2

late watergrass = experiment: Test Example 1: herbicidal activity, application before weed generation under submerged conditions (Table 16, symbol A); format: in vivo, late watergrass (Echinochloa oryzicola); settings: amount of applied herbicide 320 g/ha
Summary of the method: as §4

Compound | R: persian speedwell, herbicidal effect grade (persian speedwell [1]) | herbicidal effect on windgrass (L) (windgrass [2]) | herbicidal effect on lambsquarters (O) (lambsquarters [3]) | Herbicidal effect on H (barnyard grass), foliage application (barnyard grass [4]) | K: Italian ryegrass, herbicidal effect grade (Italian ryegrass [5]) | Herbicidal effect, C: oval-leafed pondweed (oval-leafed pondweed) | herbicidal effect on velvetleaf (M) (velvetleaf) | herbicidal effect on Italian ryegrass (K) (Italian ryegrass [6]) | herbicidal effect on persian speedwell (R) (persian speedwell [7]) | O: lambsquarters, herbicidal effect grade (lambsquarters [8]) | L: windgrass, herbicidal effect grade (windgrass [9]) | H: barnyard grass, herbicidal effect grade (barnyard grass [10]) | herbicidal effect on southern crabgrass (F) (southern crabgrass) | Herbicidal effect on D (Chinese sprangletop), foliage application (Chinese sprangletop) | Q: false cleavers, herbicidal effect grade (false cleavers) | herbicidal effect on green foxtail (G) (green foxtail) | Herbicidal effect, A: late watergrass (late watergrass) | L (windgrass) herbicidal effect grade (windgrass [2]) | O (lambsquarters) herbicidal effect grade (lambsquarters [3]) | M (velvetleaf) herbicidal effect grade (velvetleaf) | further results
CCOc1ccc(-c2oc3ccc(F)cc3c2-c2c(O)c(C)nn(C)c2=O)cc1 [9-021] | 5 (Herbicidal rate of 90% or more (almost completely withered)) | 0 (Herbicidal rate of 5% or less (almost no effect)) | 3 (Herbicidal rate of 40% or more and less than 70%) | 3 (Herbicidal rate of 40% or more and less than 70%) | 5 (Herbicidal rate of 90% or more (almost completely withered)) | 5 (Herbicidal rate of 90% or more (almost completely withered)) | 5 (Herbicidal rate of 90% or more (almost completely withered)) | 5 (Herbicidal rate of 90% or more (almost completely withered)) | 5 (Herbicidal rate of 90% or more (almost completely withered)) | 4 (Herbicidal rate of 70% or more and less than 90%) | 3 (Herbicidal rate of 40% or more and less than 70%) | 4 (Herbicidal rate of 70% or more and less than 90%) | 4 (Herbicidal rate of 70% or more and less than 90%) | 3 (Herbicidal rate of 40% or more and less than 70%) | 0 (Herbicidal rate of 5% or less (almost no effect)) | 4 (Herbicidal rate of 70% or more and less than 90%) | 5 (Herbicidal rate of 90% or more (almost completely withered)) | – | – | – | –
CCCOc1ccc(-c2oc3ccc(F)cc3c2-c2c(O)c(C)nn(C)c2=O)cc1 [9-023] | 4 (Herbicidal rate of 70% or more and less than 90%) | 4 (Herbicidal rate of 70% or more and less than 90%) | 5 (Herbicidal rate of 90% or more (almost completely withered)) | 5 (Herbicidal rate of 90% or more (almost completely withered)) | 5 (Herbicidal rate of 90% or more (almost completely withered)) | 5 (Herbicidal rate of 90% or more (almost completely withered)) | 5 (Herbicidal rate of 90% or more (almost completely withered)) | 5 (Herbicidal rate of 90% or more (almost completely withered)) | 5 (Herbicidal rate of 90% or more (almost completely withered)) | 5 (Herbicidal rate of 90% or more (almost completely withered)) | 3 (Herbicidal rate of 40% or more and less than 70%) | 5 (Herbicidal rate of 90% or more (almost completely withered)) | 4 (Herbicidal rate of 70% or more and less than 90%) | 3 (Herbicidal rate of 40% or more and less than 70%) | 0 (Herbicidal rate of 5% or less (almost no effect)) | 5 (Herbicidal rate of 90% or more (almost completely withered)) | 5 (Herbicidal rate of 90% or more (almost completely withered)) | – | – | – | –
CSc1ccc(-c2oc3ccc(F)cc3c2-c2c(O)c(C)nn(C)c2=O)cc1 [9-037] | 4 (Herbicidal rate of 70% or more and less than 90%) | 5 (Herbicidal rate of 90% or more (almost completely withered)) | 5 (Herbicidal rate of 90% or more (almost completely withered)) | 5 (Herbicidal rate of 90% or more (almost completely withered)) | 5 (Herbicidal rate of 90% or more (almost completely withered)) | 0 (Herbicidal rate of 5% or less (almost no effect)) | 5 (Herbicidal rate of 90% or more (almost completely withered)) | 5 (Herbicidal rate of 90% or more (almost completely withered)) | 5 (Herbicidal rate of 90% or more (almost completely withered)) | 2 (Herbicidal rate of 20% or more and less than 40%) | 0 (Herbicidal rate of 5% or less (almost no effect)) | 2 (Herbicidal rate of 20% or more and less than 40%) | 4 (Herbicidal rate of 70% or more and less than 90%) | 2 (Herbicidal rate of 20% or more and less than 40%) | 0 (Herbicidal rate of 5% or less (almost no effect)) | 5 (Herbicidal rate of 90% or more (almost completely withered)) | 3 (Herbicidal rate of 40% or more and less than 70%) | – | – | – | –
CCCOc1ccc(-c2oc3ccc(C)cc3c2-c2c(O)c(C)nn(C)c2=O)cc1 [9-049] | 5 (Herbicidal rate of 90% or more (almost completely withered)) | – | – | 5 (Herbicidal rate of 90% or more (almost completely withered)) | 5 (Herbicidal rate of 90% or more (almost completely withered)) | 5 (Herbicidal rate of 90% or more (almost completely withered)) | – | – | – | 4 (Herbicidal rate of 70% or more and less than 90%) | 0 (Herbicidal rate of 5% or less (almost no effect)) | 4 (Herbicidal rate of 70% or more and less than 90%) | – | 2 (Herbicidal rate of 20% or more and less than 40%) | 0 (Herbicidal rate of 5% or less (almost no effect)) | – | 5 (Herbicidal rate of 90% or more (almost completely withered)) | 0 (Herbicidal rate of 5% or less (almost no effect)) | 5 (Herbicidal rate of 90% or more (almost completely withered)) | 5 (Herbicidal rate of 90% or more (almost completely withered)) | K (Italian ryegrass) herbicidal effect grade (Italian ryegrass [6]): 5 (Herbicidal rate of 90% or more (almost completely withered)); R (persian speedwell) herbicidal effect grade (persian speedwell [7]): 5 (Herbicidal rate of 90% or more (almost completely withered)); F (southern crabgrass) herbicidal effect grade (southern crabgrass): 5 (Herbicidal rate of 90% or more (almost completely withered)); G (green foxtail) herbicidal effect grade (green foxtail): 5 (Herbicidal rate of 90% or more (almost completely withered))
CCCC(=O)Oc1c(C)nn(C)c(=O)c1-c1c(-c2ccc(SCC)cc2)oc2ccc(C)cc12 [9-058] | 5 (Herbicidal rate of 90% or more (almost completely withered)) | – | – | 5 (Herbicidal rate of 90% or more (almost completely withered)) | 5 (Herbicidal rate of 90% or more (almost completely withered)) | 5 (Herbicidal rate of 90% or more (almost completely withered)) | – | – | – | 5 (Herbicidal rate of 90% or more (almost completely withered)) | 0 (Herbicidal rate of 5% or less (almost no effect)) | 2 (Herbicidal rate of 20% or more and less than 40%) | – | 3 (Herbicidal rate of 40% or more and less than 70%) | 0 (Herbicidal rate of 5% or less (almost no effect)) | – | 5 (Herbicidal rate of 90% or more (almost completely withered)) | 0 (Herbicidal rate of 5% or less (almost no effect)) | 5 (Herbicidal rate of 90% or more (almost completely withered)) | 5 (Herbicidal rate of 90% or more (almost completely withered)) | K (Italian ryegrass) herbicidal effect grade (Italian ryegrass [6]): 5 (Herbicidal rate of 90% or more (almost completely withered)); R (persian speedwell) herbicidal effect grade (persian speedwell [7]): 5 (Herbicidal rate of 90% or more (almost completely withered)); F (southern crabgrass) herbicidal effect grade (southern crabgrass): 4 (Herbicidal rate of 70% or more and less than 90%); G (green foxtail) herbicidal effect grade (green foxtail): 5 (Herbicidal rate of 90% or more (almost completely withered))
